Converted amounts (≈) assume the structure as drawn. Read-outs that look alike come from different tables or passages of the source.
Legend:
[1] = test system: a large number of fungi; test: conventional antifungal screening test, in vitro, Sabourand broth medium; assay type: cell-based
[2] = test system: six strains of Candida; test: in vitro antifungal activity (MIC) in Eagles medium; assay type: cell-based; settings: for MIC: six strains of Candida
[3] = test system: Candida albicans; test: mouse Candida albicans oral infection model; assay type: in vivo; settings: compared to ketoconazole

Row | Structure (SMILES) | in vitro activity against a large number of fungi [1] | in vitro activity against six strains of Candida compared to ketoconazole [2] | MIC ([2]; after 48 hours, read-out: mean Minimum Inhibitory Concentration (MIC)) [µg/mL] | preventive dosage required for survival of 100% of the test animals [3] | MIC ([2]; read-out: MIC) [µg/mL]
1 | Fc1ccc(C(F)(Cn2cncn2)Cn2cncn2)c(F)c1 [compound of this invention, 1,3-Bis(1H-1,2,4-triazol-1-yl)-2-(2,4-difluorophenyl)-2-fluoro-propane] | negligible in vitro activity | significantly lower in vitro activity | 4 (≈ 13 µM) | lower than that required for ketoconazole | –
2 | CC(=O)N1CCN(c2ccc(OCC3COC(Cn4ccnc4)(c4ccc(Cl)cc4Cl)O3)cc2)CC1 (stereo not drawn) [ketoconazole, reference compound] | negligible in vitro activity | – | – | – | < 0.031
